Measured values reported in US11339150B2, “Benzimidazole compounds as HDAC6 inhibitors” (OnKure, Inc., priority 2019, dated 2022).

Key:
[1] = molecular target: T1, HDAC6 (Homo sapiens, UniProt Q9UBN7); experiment: HDAC assay (fluorogenic substrate), HDAC6; format: biochemical
T1 sequence (Q9UBN7 1-1215): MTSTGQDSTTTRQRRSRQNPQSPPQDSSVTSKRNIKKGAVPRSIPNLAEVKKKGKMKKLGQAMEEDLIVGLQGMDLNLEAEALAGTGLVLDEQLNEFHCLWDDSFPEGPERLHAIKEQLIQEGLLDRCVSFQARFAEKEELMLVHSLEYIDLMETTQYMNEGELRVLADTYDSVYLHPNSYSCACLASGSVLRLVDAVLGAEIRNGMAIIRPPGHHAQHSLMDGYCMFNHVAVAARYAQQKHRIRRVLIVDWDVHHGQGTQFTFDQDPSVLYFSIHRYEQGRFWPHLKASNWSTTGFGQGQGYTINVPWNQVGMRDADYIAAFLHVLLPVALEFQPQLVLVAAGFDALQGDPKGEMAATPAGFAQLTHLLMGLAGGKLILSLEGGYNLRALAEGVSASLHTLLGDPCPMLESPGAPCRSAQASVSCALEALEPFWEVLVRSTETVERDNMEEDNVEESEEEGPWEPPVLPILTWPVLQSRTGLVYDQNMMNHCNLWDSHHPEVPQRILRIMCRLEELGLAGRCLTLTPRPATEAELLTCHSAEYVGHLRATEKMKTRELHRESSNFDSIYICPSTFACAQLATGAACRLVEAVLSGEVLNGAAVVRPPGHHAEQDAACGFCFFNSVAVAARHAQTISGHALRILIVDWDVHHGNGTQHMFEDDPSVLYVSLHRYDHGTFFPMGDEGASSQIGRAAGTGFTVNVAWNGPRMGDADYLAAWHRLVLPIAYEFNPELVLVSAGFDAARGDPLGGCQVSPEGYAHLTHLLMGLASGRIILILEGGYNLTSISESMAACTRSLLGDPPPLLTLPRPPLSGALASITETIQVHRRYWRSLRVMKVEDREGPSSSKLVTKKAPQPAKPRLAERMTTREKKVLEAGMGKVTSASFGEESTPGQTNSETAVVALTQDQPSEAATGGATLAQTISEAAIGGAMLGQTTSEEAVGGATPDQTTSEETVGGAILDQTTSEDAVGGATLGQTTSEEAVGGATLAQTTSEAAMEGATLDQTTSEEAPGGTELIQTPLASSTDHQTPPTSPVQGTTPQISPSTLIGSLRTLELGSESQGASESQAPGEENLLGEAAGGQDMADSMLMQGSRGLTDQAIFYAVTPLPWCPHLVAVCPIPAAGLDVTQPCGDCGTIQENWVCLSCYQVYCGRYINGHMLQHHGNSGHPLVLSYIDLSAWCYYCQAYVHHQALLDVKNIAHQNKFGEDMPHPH
Procedure: Base Reaction buffer: 50 mM Tris-HCl, pH8.0, 137 mM NaCl, 2.7 mM KCl, and 1 mM MgCl2. Add fresh: 1 mg/ml BSA, 1% DMSO
Fluorogenic HDAC General Substrate: 50 μM, Arg-His-Lys-Lys(Ac)
• 1. Deliver 2× enzyme in wells of reaction plate except No Enzyme control wells. Add buffer in No En wells. • 2. Deliver compounds in 100% DMSO into the enzyme mixture by Acoustic technology (Echo550; nanoliter range). Spin down and pre-incubation. • 3. Deliver 2× Substrate Mixture (Fluorogenic HDAC Substrate and co-factor if applicable) in all reaction wells to initiate the reaction. Spin and shake. • 4. Incubate for 30 min for Class 2A, 1 hr for HDAC1, 2, 3, and 6, and 2 hr for the rest of HDACs and SIRTs at 30° C. with seal. Development Step: • 5. Add Developer with Trichostatin A (or Nicotinamide for SIRTs) to stop the reaction and to generate fluorescent color. • 6. Kinetic measurement for 1.5 hr with Envision with 15 min interval. (Ex/Em=360/460 nm) • 7. Take endpoint reading for analysis after the development reaches plateau.

[2] = tested on: Tubulin deacetylation in U266B1 human myeloma cell line; experiment: Tubulin deacetylation inhibition in U266B1 cells; format: cell-based; settings: Cell Type U266B1
Procedure: Tubulin Deacetylation Inhibition
Example 1 was dissolved with DMSO at 10 mM stock. Reference compound TSA was dissolved with DMSO at 10 mM stock. U266B1 human myeloma cell line was purchased from American Type Culture Collection (Manassas, Va.). U266B1 cells were grown in RPMI medium and supplemented with 15% heat-inactivated fetal bovine serum (FBS), 100 μg/ml penicillin, and 100 μg/ml streptomycin. Cultures were maintained at 37° C. in a humidified atmosphere of 5% CO2 and 95% air. 12% Bis-Tris gel and nitrocellulose membrane were purchased from Thermo Fisher. Anti-acetylated-Tubulin antibody (Catalogue #T7451) was purchased from Sigma-Aldrich. Anti-α-Tubulin antibody (Catalogue #sc-12462-R) antibody was purchased from Santa Cruz Biotechnology. Anti-Acetylated Histone H3 (K9) (Catalogue #9649) and anti-Histone H3 (Catalogue #3638) antibodies were purchased from Cell Signaling Technology. Anti-rabbit IgG IRDye 680RD or anti-mouse IgG IRDye 800CW secondary antibodies were purchased from LI-COR.

For `O=S(=O)(NCC1CC1)c1cc(Nc2ncc(-c3nnc(C(F)F)o3)cn2)cc2c1ncn2CCO` [Example 26, N-(cyclopropylmethyl)-6-((5-(5-(difluoromethyl)-1,3,4-oxadiazol-2-yl)pyrimidin-2-yl)amino)-1-(2-hydroxyethyl)-1H-benzo[d]imidazole-4-sulfonamide], the inhibition at 10 µM [1] was over 90%.

`CNC(=O)n1cnc2c(-c3ccccc3)cc(Nc3ncc(-c4nnc(C(F)F)o4)cn3)cc21` [Example 28, 6-((5-(5-(difluoromethyl)-1,3,4-oxadiazol-2-yl)pyrimidin-2-yl)amino)-N-methyl-4-phenyl-1H-benzo[d]imidazole-1-carboxamide] showed an inhibition at 10 µM [1] of over 90%.

Work on `CC(CO)n1cnc2c(-c3ccccc3)cc(Nc3ncc(-c4nnc(C(F)F)o4)cn3)cc21` (stereo not drawn) [Example 29, 2-(6-((5-(5-(difluoromethyl)-1,3,4-oxadiazol-2-yl)pyrimidin-2-yl)amino)-4-phenyl-1H-benzo[d]imidazol-1-yl)propan-1-ol] yielded an inhibition at 10 µM [1] of over 90%.

`Cc1nc2c(-c3ccccc3)cc(Nc3ncc(-c4nnc(C(F)F)o4)cn3)cc2n1CCO` [Example 30, 2-(6-((5-(5-(difluoromethyl)-1,3,4-oxadiazol-2-yl)pyrimidin-2-yl)amino)-2-methyl-4-phenyl-1H-benzo[d]imidazol-1-yl)ethan-1-ol] showed an inhibition at 10 µM [1] of over 90%.

`OCCn1cnc2c(-c3ccc(F)cc3F)cc(Nc3ncc(-c4nnc(C(F)F)o4)cn3)cc21` [Example 32, 2-(6-((5-(5-(difluoromethyl)-1,3,4-oxadiazol-2-yl)pyrimidin-2-yl)amino)-4-(2,4-difluorophenyl)-1H-benzo[d]imidazol-1-yl)ethan-1-ol] showed an inhibition at 10 µM [1] of over 90%.

`OCCn1cnc2c(-c3ccc(F)cc3C(F)(F)F)cc(Nc3ncc(-c4nnc(C(F)F)o4)cn3)cc21` [Example 33, 2-(6-((5-(5-(difluoromethyl)-1,3,4-oxadiazol-2-yl)pyrimidin-2-yl)amino)-4-(4-fluoro-2-(trifluoromethyl)phenyl)-1H-benzo[d]imidazol-1-yl)ethan-1-ol] gave an inhibition at 10 µM [1] of over 90%.

Work on `CC(C)(C)c1cc(Nc2ncc(-c3nnc(C(F)F)o3)cn2)cc2c1ncn2CCO` [Example 34, 2-(4-(tert-butyl)-6-((5-(5-(difluoromethyl)-1,3,4-oxadiazol-2-yl)pyrimidin-2-yl)amino)-1H-benzo[d]imidazol-1-yl)ethan-1-ol] yielded an inhibition at 10 µM [1] of over 90%.

For `FC(F)c1nnc(-c2cnc(Nc3cc(-c4ccncc4)c4nc[nH]c4c3)nc2)o1` [Example 35, N-(5-(5-(difluoromethyl)-1,3,4-oxadiazol-2-yl)pyrimidin-2-yl)-4-(pyridin-4-yl)-1H-benzo[d]imidazol-6-amine], the inhibition at 10 µM [1] was over 90%.

`FC(F)c1nnc(-c2cnc(Nc3cc(-c4ccn[nH]4)c4nc[nH]c4c3)nc2)o1` [Example 36, N-(5-(5-(difluoromethyl)-1,3,4-oxadiazol-2-yl)pyrimidin-2-yl)-4-(1H-pyrazol-5-yl)-1H-benzo[d]imidazol-6-amine] was tested, and the inhibition at 10 µM [1] was over 90%.

With `OCCn1cnc2c(-c3ccn[nH]3)cc(Nc3ncc(-c4nnc(C(F)F)o4)cn3)cc21` [Example 37, 2-(6-((5-(5-(difluoromethyl)-1,3,4-oxadiazol-2-yl)pyrimidin-2-yl)amino)-4-(1H-pyrazol-5-yl)-1H-benzo[d]imidazol-1-yl)ethan-1-ol] the inhibition at 10 µM [1] was over 90%.

`Fc1c(Nc2ncc(-c3nnc(C(F)F)o3)cn2)cc2[nH]cnc2c1-c1ccccc1` [Example 38, N-(5-(5-(difluoromethyl)-1,3,4-oxadiazol-2-yl)pyrimidin-2-yl)-5-fluoro-4-phenyl-1H-benzo[d]imidazol-6-amine] was tested, and the inhibition at 10 µM [1] was over 90%.

`Fc1c(Nc2ncc(-c3nnc(C(F)F)o3)cn2)cc(-c2ccccc2)c2nc[nH]c12` [Example 39, N-(5-(5-(difluoromethyl)-1,3,4-oxadiazol-2-yl)pyrimidin-2-yl)-7-fluoro-4-phenyl-1H-benzo[d]imidazol-6-amine] was tested, and the inhibition at 10 µM [1] was over 90%.

`Cn1nccc1-c1cc(Nc2ncc(-c3nnc(C(F)F)o3)cn2)cc2[nH]cnc12` [Example 40, N-(5-(5-(difluoromethyl)-1,3,4-oxadiazol-2-yl)pyrimidin-2-yl)-4-(1-methyl-1H-pyrazol-5-yl)-1H-benzo[d]imidazol-6-amine] was tested, and the inhibition at 10 µM [1] was over 90%.

`OCCn1c(C(F)(F)F)nc2c(-c3ccccc3)cc(Nc3ncc(-c4nnc(C(F)F)o4)cn3)cc21` [Example 41, 2-(6-((5-(5-(difluoromethyl)-1,3,4-oxadiazol-2-yl)pyrimidin-2-yl)amino)-4-phenyl-2-(trifluoromethyl)-1H-benzo[d]imidazol-1-yl)ethan-1-ol] showed an inhibition at 10 µM [1] of over 90%.

Molecule `Fc1cc(I)ccc1-c1cc(Nc2ncc(-c3nnc(C(F)F)o3)cn2)cc2[nH]cnc12` [Example 42, N-(5-(5-(difluoromethyl)-1,3,4-oxadiazol-2-yl)pyrimidin-2-yl)-4-(2-fluoro-4-iodophenyl)-1H-benzo[d]imidazol-6-amine] has an inhibition at 10 µM [1] of over 90%.

Molecule `FC(F)c1nnc(-c2cnc(Nc3cc(-c4cn[nH]c4)c4nc[nH]c4c3)nc2)o1` [Example 44, N-(5-(5-(difluoromethyl)-1,3,4-oxadiazol-2-yl)pyrimidin-2-yl)-4-(1H-pyrazol-4-yl)-1H-benzo[d]imidazol-6-amine] has an inhibition at 10 µM [1] of over 90%.

`Fc1ccc(Cl)cc1-c1cc(Nc2ncc(-c3nnc(C(F)F)o3)cn2)cc2[nH]cnc12` [Example 45, 4-(5-chloro-2-fluorophenyl)-N-(5-(5-(difluoromethyl)-1,3,4-oxadiazol-2-yl)pyrimidin-2-yl)-1H-benzo[d]imidazol-6-amine] showed an inhibition at 10 µM [1] of over 90%.

Work on `OCCn1cnc2c(-c3cn[nH]c3)cc(Nc3ncc(-c4nnc(C(F)F)o4)cn3)cc21` [Example 46, 2-(6-((5-(5-(difluoromethyl)-1,3,4-oxadiazol-2-yl)pyrimidin-2-yl)amino)-4-(1H-pyrazol-4-yl)-1H-benzo[d]imidazol-1-yl)ethan-1-ol] yielded an inhibition at 10 µM [1] of over 90%.

`C#CCn1cnc2c(-c3ccccc3)cc(Nc3ncc(-c4nnc(C(F)F)o4)cn3)cc21` [Example 47] was tested, and the inhibition at 10 µM [1] was over 90%.

`FC(F)c1nnc(-c2cnc(Nc3cc(-c4ccccc4)c4ncn(CC(F)(F)F)c4c3)nc2)o1` [Example 48, N-(5-(5-(difluoromethyl)-1,3,4-oxadiazol-2-yl)pyrimidin-2-yl)-4-phenyl-1-(2,2,2-trifluoroethyl)-1H-benzo[d]imidazol-6-amine] gave an inhibition at 10 µM [1] of over 90%.

Molecule `CC(/C=C/C(=O)NO)=C\[C@@H](C)C(=O)c1ccc(N(C)C)cc1` [Trichostatin, reference compound] has an IC50 [2] of 750 nM.
